Results published in US20250163104A1, “MACROCYCLIC IMMUNOMODULATORS” (priority 2021, published 2025).
*1 amine or outer side, *2 acyl side, *3 side chain or, on linkers, in order; H or OH if unused. Where a SMILES comes first, the peptide text is derived from it. Bridges are numbered along the chain shown (N, C = ends). [ ]: non-standard residue; d: D form. The star is where a group is joined. X4 = O=C([C@H](CCNC[C@@H](O)[C@H](O)[C@H](O)[C@@H](O)[C@H](O)CO)N[*:1])[*:2]; Bip = N[C@@H](Cc1ccc(-c2ccccc2)cc1)C(=O)O; Phe(3-Me) = Cc1cccc(C[C@H](N)C(=O)O)c1; Phe(4-F) = N[C@@H](Cc1ccc(F)cc1)C(=O)O; Val(3-OH) = CC(C)(O)[C@H](N)C(=O)O; h4Pal = N[C@@H](CCc1ccncc1)C(=O)O; 3Pal = N[C@@H](Cc1cccnc1)C(=O)O; Cha = N[C@@H](CC1CCCCC1)C(=O)O; dDab = NCC[C@@H](N)C(=O)O; Carboxymethyl = O=C(O)C*; Nle = CCCC[C@H](N)C(=O)O; Orn = NCCC[C@H](N)C(=O)O; Pra = C#CC[C@H](N)C(=O)O; Dab = NCC[C@H](N)C(=O)O; Nva = CCC[C@H](N)C(=O)O; Dap = NC[C@H](N)C(=O)O; Propargyl = C#CC*

The compounds below were run against T1, human PD-1 / PD-L1-Ig binding on Jurkat cell line over-expressing human PD-1 (Jurkat-PD-1) (Homo sapiens, UniProt Q15116) (assay: Jurkat-PD-1 Cell Binding High-Content Screening Assay (CBA)). Details: Jurkat HPD1_PDL1 IC50, Jurkat-PD-1 cells, PE-labeled PD-L1-Ig 20 nM final.
T1 construct: expressed in transfected cells; host or cells: Jurkat
T1 sequence (Q15116 25-288): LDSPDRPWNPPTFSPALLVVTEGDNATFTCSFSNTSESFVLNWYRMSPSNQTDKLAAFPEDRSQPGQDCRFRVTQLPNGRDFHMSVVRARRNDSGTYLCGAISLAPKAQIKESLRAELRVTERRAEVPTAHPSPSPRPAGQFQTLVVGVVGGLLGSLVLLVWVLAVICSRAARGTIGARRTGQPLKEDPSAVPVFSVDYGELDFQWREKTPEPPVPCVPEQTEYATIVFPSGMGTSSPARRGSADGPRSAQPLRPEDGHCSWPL
Format: cell-based
Outline: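 Read-out: high-content imaging of PE-tagged PD-L1-Ig bound to Jurkat cells overexpressing human PD-1, after fixation with 4% paraformaldehyde and Hoechst 33342 nuclear staining. Ligand was used at 20 nM final for 1 hour, after a 2 h compound exposure at 37° C in serum-containing DMEM.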

Structure (SMILES)	IC50
CC(C)C[C@H]1NC(=O)[C@H](CCCN)NC(=O)[C@H](CCC(=O)O)NC(=O)[C@H](Cc2ccc(-c3ccccc3)cc2)NC(=O)[C@H](C(C)C)NC(=O)[C@H](Cc2c[nH]c3ccccc23)NC(=O)[C@H](CC(=O)O)NC(=O)[C@H](Cc2ccc(C(=O)O)cc2)NC(=O)[C@H](Cc2ccncc2)NC(=O)CSC[C@@H](C(=O)N[C@@H](C)C(N)=O)NC(=O)[C@H]([C@@H](C)O)NC(=O)[C@H](C(C)C)NC(=O)[C@H](CC2CCCCC2)NC(=O)[C@H](Cc2c[nH]cn2)NC1=O [Compound 1597]	20.2 nM
CC(C)C[C@H]1NC(=O)[C@H](CCCN)NC(=O)[C@H](CCC(=O)O)NC(=O)[C@H](Cc2ccc(-c3ccccc3)cc2)NC(=O)[C@H](C(C)C)NC(=O)[C@H](Cc2c[nH]c3ccccc23)NC(=O)[C@H](CC(=O)O)NC(=O)[C@H](Cc2ccncc2)NC(=O)[C@H](Cc2ccc(OCC(=O)O)cc2)NC(=O)CSC[C@@H](C(=O)N[C@@H](C)C(N)=O)NC(=O)[C@H]([C@@H](C)O)NC(=O)[C@H](C(C)C)NC(=O)[C@H](CC2CCCCC2)NC(=O)[C@H](Cc2c[nH]cn2)NC1=O [Compound 1605]	23.1 nM

Same assay, conditions: Jurkat-PD-1 cells, PE-labeled PD-L1-Ig 20 nM final; read-out: Jurkat HPD1_PDL1 IC50

IC50	Structure (SMILES)
3.2 nM	C#CCOc1ccc(C[C@@H]2NC(=O)[C@H](Cc3cccc(C)c3)NC(=O)[C@H](CC(=O)O)NC(=O)[C@H](Cc3ccc(OCC(=O)O)cc3)NC(=O)[C@H](CN)NC(=O)CSC[C@@H](C(=O)N[C@@H](CCN)C(N)=O)NC(=O)[C@H](CCC(=O)O)NC(=O)[C@H](C(C)C)NC(=O)[C@H](CC3CCCCC3)NC(=O)[C@H](CCN)NC(=O)[C@@H](CC(C)C)NC(=O)[C@H](CCCN)NC(=O)[C@H](Cc3ccc(OCC(=O)O)cc3)NC(=O)[C@H](Cc3ccc(-c4ccccc4)cc3)NC2=O)cc1 [Compound 1812] ({CH2CO}-[Dap]Y(Carboxymethyl)D[Phe(3-Me)]Y(Propargyl)[Bip]Y(Carboxymethyl)[Orn][dL][Dab][Cha]VEC[Dab]-NH2; thioether N-14)
238 nM	COC[C@@H]1NC(=O)[C@H](Cc2ccc(OCC(=O)O)cc2)NC(=O)[C@H](CN)NC(=O)CSC[C@@H](C(=O)N[C@@H](C)C(N)=O)NC(=O)[C@H]([C@@H](C)O)NC(=O)[C@H](C(C)C)NC(=O)[C@H](CC2CCCCC2)NC(=O)[C@H](CCN)NC(=O)[C@@H](CC(C)C)NC(=O)[C@H](CCCN)NC(=O)[C@H](CCC(=O)O)NC(=O)[C@H](Cc2ccc(-c3ccccc3)cc2)NC(=O)[C@H](C(C)C)NC(=O)[C@H](Cc2c[nH]c3ccccc23)NC1=O [Compound 1500] ({CH2CO}-[Dap]Y(Carboxymethyl)S(Me)WV[Bip]E[Orn][dL][Dab][Cha]VTCA-NH2; thioether N-14)
99.6 nM	CC(C)C[C@@H]1NC(=O)[C@H](CCCNC(=N)N)NC(=O)[C@@H](CC(C)C)NC(=O)[C@H](CN)NC(=O)[C@H](CCCNC(=N)N)NC(=O)[C@H](Cc2ccc(-c3ccccc3)cc2)NC(=O)[C@H](C(C)C)NC(=O)[C@H](Cc2c[nH]c3ccccc23)NC(=O)[C@H](CC(=O)O)NC(=O)[C@H](Cc2ccc(O)cc2)NC(=O)[C@H](CC(N)=O)NC(=O)CSC[C@@H](C(=O)N[C@@H](C)C(N)=O)NC(=O)[C@H]([C@@H](C)O)NC(=O)[C@H](C(C)C)NC1=O [Compound 1010] ({CH2CO}-NYDWV[Bip]R[Dap][dL]RLVTCA-NH2; thioether N-14)
239 nM	C#CC[C@H](NC(=O)[C@@H]1CSCC(=O)N[C@@H](CCC)C(=O)N[C@@H](Cc2ccc(OCC(=O)O)cc2)C(=O)N[C@@H](CC(=O)O)C(=O)N[C@@H](Cc2cccc(C)c2)C(=O)N[C@@H](Cc2ccc(OCC(=O)O)cc2)C(=O)N[C@@H](Cc2ccc(-c3ccccc3)cc2)C(=O)N[C@@H](Cc2ccc(OCC(=O)O)cc2)C(=O)N[C@@H](CCCC)C(=O)N[C@H](CC(C)C)C(=O)N[C@@H](CCNC[C@@H](O)[C@H](O)[C@H](O)[C@@H](O)[C@H](O)CO)C(=O)N[C@@H](CC2CCCCC2)C(=O)N[C@@H](C(C)C)C(=O)N[C@@H](CCC(=O)O)C(=O)N1)C(=O)O [Compound 2699] ({CH2CO}-[Nva]Y(Carboxymethyl)D[Phe(3-Me)]Y(Carboxymethyl)[Bip]Y(Carboxymethyl)[Nle][dL][X4][Cha]VEC[Pra]-OH; thioether N-14)
97.3 nM	Cc1cccc(C[C@@H]2NC(=O)[C@H](CC(=O)O)NC(=O)[C@H](Cc3ccc(OCC(=O)O)cc3)NC(=O)[C@H](CCCNC(=N)N)NC(=O)CSC[C@@H](C(N)=O)NC(=O)[C@H]([C@@H](C)O)NC(=O)[C@H](C(C)C)NC(=O)[C@H](CC3CCCCC3)NC(=O)[C@H](CCN)NC(=O)[C@@H](CC(C)C)NC(=O)[C@H](CCCN)NC(=O)[C@H](CCCN)NC(=O)[C@H](Cc3ccc(-c4ccccc4)cc3)NC(=O)[C@H](Cc3ccc(O)cc3)NC2=O)c1 [Compound 2055] ({CH2CO}-RY(Carboxymethyl)D[Phe(3-Me)]Y[Bip][Orn][Orn][dL][Dab][Cha]VTC-NH2; thioether N-14)
16.2 nM	CC[C@H](C)[C@@H]1NC(=O)[C@H](Cc2ccc(-c3ccccc3)cc2)NC(=O)[C@H](C(C)C)NC(=O)[C@H](Cc2c[nH]c3ccccc23)NC(=O)[C@H](CC(=O)O)NC(=O)[C@H](Cc2ccc(O)cc2)NC(=O)[C@H](CC(N)=O)NC(=O)CSC[C@@H](C(=O)NCC(N)=O)NC(=O)[C@H](CO)NC(=O)[C@H](C(C)C)NC(=O)[C@H](CC(C)C)NC(=O)[C@H](CCN)NC(=O)[C@@H](CC(C)C)NC(=O)[C@H](CCCCN)NC1=O [Compound 1122] ({CH2CO}-NYDWV[Bip]IK[dL][Dab]LVSCG-NH2; thioether N-14)
8.5 nM	Cc1cccc(C[C@@H]2NC(=O)[C@H](CC(=O)O)NC(=O)[C@H](Cc3ccc(OCC(=O)O)cc3)NC(=O)[C@H](Cc3ccc(F)cc3)NC(=O)CSC[C@@H](C(=O)N[C@H](CCN)C(N)=O)NC(=O)[C@H](CCC(=O)O)NC(=O)[C@H](C(C)(C)O)NC(=O)[C@H](CC3CCCCC3)NC(=O)[C@H](CCN)NC(=O)[C@@H](CC(C)C)NC(=O)[C@H](CCCN)NC(=O)[C@H](Cc3ccc(OCC(=O)O)cc3)NC(=O)[C@H](Cc3ccc(-c4ccccc4)cc3)NC(=O)[C@H](Cc3ccc(OCC(=O)O)cc3)NC2=O)c1 [Compound 2676] ({CH2CO}-[Phe(4-F)]Y(Carboxymethyl)D[Phe(3-Me)]Y(Carboxymethyl)[Bip]Y(Carboxymethyl)[Orn][dL][Dab][Cha][Val(3-OH)]EC[dDab]-NH2; thioether N-14)
89.7 nM	Cc1cccc(C[C@@H]2NC(=O)[C@H](CC(=O)O)NC(=O)[C@H](Cc3ccc(OCC(=O)O)cc3)NC(=O)[C@H](CN)NC(=O)CSC[C@@H](C(=O)N[C@@H](CCN)C(N)=O)NC(=O)[C@H](CCCN)NC(=O)[C@H](C(C)C)NC(=O)[C@H](CC3CCCCC3)NC(=O)[C@H](Cc3cccnc3)NC(=O)[C@@H](CC(C)C)NC(=O)[C@H](CCCN)NC(=O)[C@H](Cc3ccc(O)cc3)NC(=O)[C@H](Cc3ccc(-c4ccccc4)cc3)NC(=O)[C@H](Cc3ccc(O)cc3)NC2=O)c1 [Compound 2037] ({CH2CO}-[Dap]Y(Carboxymethyl)D[Phe(3-Me)]Y[Bip]Y[Orn][dL][3Pal][Cha]V[Orn]C[Dab]-NH2; thioether N-14)
6.8 nM	Cc1cccc(C[C@@H]2NC(=O)[C@H](CC(=O)O)NC(=O)[C@H](CCc3ccncc3)NC(=O)[C@H](CN)NC(=O)CSC[C@@H](C(=O)N[C@@H](C)C(N)=O)NC(=O)[C@H]([C@@H](C)O)NC(=O)[C@H](C(C)C)NC(=O)[C@H](CC(C)C)NC(=O)[C@H](CCN)NC(=O)[C@@H](CC(C)C)NC(=O)[C@H](CCCN)NC(=O)[C@H](C(C)C)NC(=O)[C@H](Cc3ccc(-c4ccccc4)cc3)NC(=O)[C@H](C(C)C)NC2=O)c1 [Compound 1253] ({CH2CO}-[Dap][h4Pal]D[Phe(3-Me)]V[Bip]V[Orn][dL][Dab]LVTCA-NH2; thioether N-14)
